Results reported in patent US11123388B2, “Composition for preventing and treating inflammatory bowel disease” (GENUONE SCIENCES INC., priority 2015, dated 2021).
Values joined by “and” are separate entries in the source; they are usually repeats but may differ in a detail not shown here. Identical values can stand only once.

Tests used:
[1] = system: U937 cell adhesion to the HT-29 intestinal epithelial cells; test: Inhibition of monocyte (U937) adhesion to TNF-α-stimulated intestinal epithelial cells (HT-29); type: cell-based, human; conditions: 5-ASA 20 mM (positive control), TNF-α 100 ng/mL, 24 h
Procedure: 3. Effect of Inhibiting Monocyte Adhesion Ability in Intestinal Epithelial Cells Human intestinal epithelial cell line HT-29 cells (American Type Culture Collections, Rockville, Mass., USA) and human monocyte cell line U937 cells (ATCC, Rockville, Mass., USA) were cultured in RPMI 1640 containing fetal bovine serum (FBS) and 1% penicillin/streptomycin, and the cell line was maintained under the environment of 95% air and 5% CO2 at 37° C. […] The HT-29 cells (2×10^6 cells/well), which were cultured in a 48-well plate for 24 hours, were simultaneously treated with a extract (100 μg/mL) while treating with TNF-α (100 ng/mL), and cultured for 24 hours. In particular, 20 mM 5-aminosalicylic acid (5-ASA) was used as the positive control. Then, HT-29 cells were co-cultured along with U937 cells (5×10^5 cells/well), which were labeled with BCECF/AM at 37° C. for 30 minutes. Unattached U937 cells were removed and washed twice with PBS. The HT-29 cells to which U937 cells were attached were dissolved using 0.1% Triton X-100 which was dissolved in 0.1 mol/L Tris. The fluorescence of these lysates was measured using the luminance at 485 nm and 520 nm using a microplate reader (TECAN, Gr, Austria).

[2] = system: TNF-α production in LPS-treated macrophages; test: Inhibition of LPS-induced TNF-α production in macrophages (ELISA); type: cell-based; conditions: Macrophage, LPS 1 μg/mL, read-out: Effect of inhibiting TNF-α (%)
Procedure: 4. Effect of Inhibiting TNF-α Production The macrophages (American Type Culture Collections, Rockville, Mass., USA) cultured in a 24-well plate were pretreated with LPS (1 μg/mL) for 1 hour, treated with a extract (100 μg/mL), 20 mM 5-ASA (100 μg/mL) and 20 μM dexamethasone, and cultured for 24 hours, and the supernatant of cell was used for the experiment. First, capture antibody of TNF-α was added into a 96-well ELISA plate and allowed to react overnight. The plate was washed 6 times with 1×PBS (PBS-T) containing 0.05% Tween-20, and blocked with 1× assay diluent solution containing 2% BSA at room temperature for 1 hour. The plate was washed 6 times with 1×PBS-T and the supernatant or TNF-α standard protein was added thereto and allowed to react at room temperature for 2 hours. The plate was again was washed 6 times with 1×PBS-T, detection antibody was added thereto, and allowed to react at room temperature for 2 hours. The plate was again was washed 6 times with 1×PBS-T, avidin-HRP solution was added thereto, and allowed to react at room temperature for 30 minutes. […] With respect to the levels of reactions of the plate, the absorbance was measured at 450 nm using a microplate reader (TECAN, Gr, Austria).

[3] = system: IL-6 production in LPS-treated macrophages; test: Inhibition of LPS-induced IL-6 production in macrophages (ELISA); type: cell-based; conditions: LPS 1 μg/mL
Procedure: 5. Effect of Inhibiting IL-6 Production The macrophages (American Type Culture Collections, Rockville, Mass., USA) cultured in a 24-well plate were pretreated with LPS (1 μg/mL) for 1 hour, treated with a extract (50 μg/mL), 20 mM 5-ASA (50 μg/mL) and 20 μM dexamethasone, and cultured for 24 hours, and the supernatant was used for the experiment. First, capture antibody of IL-6 was added into a 96-well ELISA plate and allowed to react overnight. The plate was washed 6 times with 1×PBS (PBS-T) containing 0.05% Tween-20, and blocked with 1× assay diluent solution containing 2% BSA at room temperature for 1 hour. […] The plate was again was washed 6 times with 1×PBS-T, detection antibody was added thereto, and allowed to react at room temperature for 2 hours. The plate was again was washed 6 times with 1×PBS-T, avidin-HRP solution was added thereto, and allowed to react at room temperature for 30 minutes. The plate was again was washed 6 times with 1×PBS-T, a TMB substrate solution was added thereto and allowed to react at room temperature for final 30 minutes, and a reaction stopping solution (1 M H3PO4) was added thereto to stop the reaction. With respect to the levels of reactions of the plate, the absorbance was measured at 450 nm using a microplate reader (TECAN, Gr, Austria).

[4] = system: dextran sodium sulfate (DSS)-induced colitis in C57BL/6 female mice; test: Amelioration of colitis in DSS animal model; type: in vivo; design: DAI (disease activity index): scale not given here; Colon Length: unit not given here
Procedure: 7. Effect of Ameliorating Colitis in DSS Animal Model To construct an experimental model of inflammatory bowel disease, 6-week old C57BL/6 female mice (17 g to 19 g) were purchased from DBL Co., Ltd. (Eumseong, Korea), and the mice were given ad libitum access to solid feeds and water and allowed to adapt to a controlled environment with constant humidity (50%), constant temperature (22° C.), and 12-hour light-dark cycle for 1 week. […] The control drug (5-ASA) and extracts were dissolved in 0.5% carboxymethyl cellulose (CMC), and then orally administered once daily for 7 days along with 3% dextran sodium sulfate (DSS), and the normal control group and the colitis-induced group were orally administered with 0.5% CMC. The colitis-induced group, the control drug-treated group, and the extract-treated group were given ad libitum access to 3% DSS for 1 week, and the normal control group was given ad libitum access to water. Then, the mice were sacrificed on the 8th day, and each of their colons was excised from the cecum to the region immediately before the anus, and the length and external appearance of the excised colon were examined to determine the degree of weight loss, diarrhea, and […], and the results were scored according to the criteria.

[5] = system: TNBS-induced Crohn's disease in ICR female mice; test: Amelioration of Crohn's disease in TNBS animal model; type: in vivo
Procedure: 8. Effect of Ameliorating Crohn's Disease in TNBS Animal Model To construct an experimental model of inflammatory bowel disease, 7-week old ICR female mice (25 g to 27 g) were purchased from DBL Co., Ltd. (Eumseong, Korea), and the mice were given ad libitum access to solid feeds and water and allowed to adapt to a controlled environment with constant humidity (50±10%), constant temperature (22±2° C.), and 12-hour light-dark cycle for 1 week. […] The mice were fasted for 24 hours before injection of TNBS. […] The control drug (5-ASA) and extracts were dissolved in 0.5% carboxymethyl cellulose (CMC), and orally administered once daily for 5 days. The normal control group and the colitis-induced group were orally administered with 0.5% CMC. After 5 days of oral administration, mice were fasted until the next day and sacrificed. Each of their colons was excised from the cecum to the region immediately before the anus, and the length and external appearance of the excised colon were examined to determine the degree of weight loss, constipation, and intestinal edema, and the results were scored according to the criteria.

myeloperoxidase (MPO) = test: Myeloperoxidase (MPO) activity in colon tissue, TNBS animal model; type: in vivo; conditions: TNBS mice, 200 mg/kg
Procedure: 6. Effect of Inhibiting Oxidative Stress Through Measurement of Myeloperoxidase (MPO) Activity
200 μL of lysis buffer was added to 100 mg of colon tissue collected at the time of autopsy and homogenized and the supernatant obtained by centrifugation at 10,000 rpm for 20 minutes was used. First, capture antibody of MPO was added into a 96-well ELISA plate and allowed to react overnight. The plate was washed 6 times with 1×PBS (PBS-T) containing 0.05% Tween-20, and blocked with 1× assay diluent solution containing 2% BSA at room temperature for 1 hour. […] With respect to the levels of reactions of the plate, the absorbance was measured at 450 nm using a microplate reader (TECAN, Gr, Austria).
To construct an experimental model of inflammatory bowel disease, 7-week old ICR female mice (25 g to 27 g) were purchased from DBL Co., Ltd. (Eumseong, Korea), and the mice were given ad libitum access to solid feeds and water and allowed to adapt to a controlled environment with constant humidity (50±10%), constant temperature (22±2° C.), and 12-hour light-dark cycle for 1 week. […] Each of their colons was excised from the cecum to the region immediately before the anus, and the length and external appearance of the excised colon were examined to determine the degree of weight loss, constipation, and intestinal edema, and the results were scored according to the criteria.

[6] = system: NO production in HT-29 cells; test: Inhibition of NO production in HT-29 cells (Griess); type: cell-based, human; conditions: 48 h
Procedure: 2. Effect of Inhibition of NO Production Human intestinal epithelial cell line HT-29 cells (American Type Culture Collections, Rockville, Mass., USA) were cultured in Dulbecco's Modified Eagle's Medium (DMEM) along with 10% Fatal bovine serum (FBS), 1% Antibiotic-Antimycotic (GIBCO, Cat No. 15240-062) in 100 mm/60.1 cm^2 culture dish at 37° C., 5% CO2 conditions. […] The supernatant of cell was collected and used as a sample for the test. The test analysis was performed using the Total NO/Nitrite/Nitrate ELISA kit (R&D systems, Cat. #KGE001) according to the manufacturer's manual. Briefly, the test was performed in the following sequence: the cell culture which was grown after treatment with the sample was dispensed into a 96-well plate in an amount of 50 μL/well, treated with Griess Reagent, reacted at room temperature for 10 minutes, and the absorbance was measured at 540 nm.

[7] = oral once daily 7 days, control drug 5-ASA 200 mg/kg, listed as Control drug-treated Group
[8] = 200 mg/kg oral once daily 5 days, control drug 5-ASA 200 mg/kg, listed as Control drug-treated Group
[9] = 200 mg/kg oral once daily 5 days, control drug 5-ASA 200 mg/kg, listed as control-drug treated group

Q: For `Nc1ccc(O)c(C(=O)O)c1` [5-ASA, 5-aminosalicylic acid], which “Effect of inhibiting adhesion (%)” value [1] is on record?
A: 24.48%

Q: What about the inhibition at 20000 µM ([1]; Homo sapiens, read-out: Effect of inhibiting adhesion (%)) of the same compound?
A: 18.9%

Q: What about the inhibition at 20000 µM ([2]; 5-ASA 20 mM) of the same compound?
A: 11.1%

Q: What about the “Effect of inhibiting IL-6 (%)” value ([3]; 5-ASA 20 mM) of the same compound?
A: 67.68% and 50.98%

Q: And the “Effect of inhibiting IL-6 (%)” value ([3]; 5-ASA 20 mM, listed as 5ASA)?
A: 49.89% and 49.35%

Q: What about the inhibition at 20000 µM ([3]; Macrophage, 5-ASA 20 mM, read-out: Effect of inhibiting IL-6 (%)) of the same compound?
A: 52.8%

Q: And the “effect of improvement of disease activity index compared to the colitis-induced group” value [4]?
A: 45%

Q: And the “increase of the colon length compared to the colitis-induced group” value [4]?
A: 3.6%

Q: And the “recovery of intestinal mucosa (immunostaining of intestinal mucosal tissues)” value [4]?
A: partially restored

Q: And the “Colon Length” value [4, 7]?
A: 5.42 and 5.77 and 5.45 and 5.31 ± 0.16

Q: What about the “Colon Length (cm)” value [4, 7] of the same compound?
A: 5.42 cm and 5.31 ± 0.16 cm

Q: And the “DAI (disease activity index)” value [4, 7]?
A: 4.50 and 7.48 and 6.88 ± 0.44 and 5.75 and 5.33

Q: And the “Weight per Area (colon weight per colon length)” value (shortened to “Weight per Area”) [4, 7]?
A: 30.66 ± 0.76 and 32.52 and 31.42

Q: And the “reduction of weight of colon per colon length compared to the Crohn's disease-induced group” value ([5]; 200 mg/kg)?
A: almost no difference

Q: What about the “Colon Length (cm)” value ([5]; 200 mg/kg oral once daily 5 days, control drug 5-ASA 200 mg/kg) of the same compound?
A: 8.33 ± 0.22 cm

Q: What about the “Colon Length” value [5, 8] of the same compound?
A: 8.28 and 8.33 ± 0.22

Q: And the “DAI (disease activity index)” value [5, 8]?
A: 10.56 ± 1.40 and 8.20

Q: What about the “Weight per Area” value [5, 8] of the same compound?
A: 67.67 ± 9.30 and 46.55

Q: And the “Colon Length” value [5, 9]?
A: 8.27

Q: And the “DAI (disease activity index)” value [5, 9]?
A: 6.30

Q: What about the “Weight per Area” value [5, 9] of the same compound?
A: 48.66

Q: And the “effect of improvement of disease activity index compared to the Crohn's disease-induced group” value ([5]; 200 mg/kg, listed as Control drug-treated Group, 200 mg/kg)?
A: 7% and 9%

Q: What about the “difference in colon weight per colon length compared to the Crohn's disease-induced group” value ([5]; 5-ASA 200 mg/kg) of the same compound?
A: about 6.5 mg/cm

Q: And the “decrease of MPO activity compared to the Crohn's disease-induced group” value (myeloperoxidase (MPO))?
A: 15%

Q: And the “inhibitory effect against NO production” value [6]?
A: 37%

Q: `C[C@@H]1C[C@H]2[C@@H]3CCC4=CC(=O)C=C[C@]4(C)[C@@]3(F)[C@@H](O)C[C@]2(C)[C@@]1(O)C(=O)CO` [Dexamethasone, dexamethasone] was tested. Which inhibition at 20 µM ([2]; dexamethasone 20 μM) did it give?
A: 38.5%

Q: And the inhibition at 20 µM ([3]; Macrophage, dexamethasone 20 μM, read-out: Effect of inhibiting IL-6 (%))?
A: 49.9%
